The values below come from paper PMC10060280, “The influence of cyclooxygenase inhibitors on kynurenic acid production in rat kidney: a novel path for kidney protection?” (Pharmacological Reports, 2023).

Structures can show the parent of a compound that is named as a salt. Where two headings read alike, the source gives them in different places.

Test [1] concerns KYNA production in rat kidney. Put plainly: KYNA synthesis in rat kidney homogenate in vitro. As to conditions: 10 μM L-KYN; for IC50: 2 h, 37 °C, read-out: IC50 of KYNA production inhibition. The format is biochemical. The method, then: In the first step, after the animals were decapitated, rat kidneys were harvested and immediately put on ice. Afterward whole kidneys were weighed and homogenized in prepared oxygenated Krebs–Ringer buffer at pH 7.4 (1:4; w/v). 100 µL of kidney homogenate was put into test tubes, pre-filled with oxygenated Krebs–Ringer buffer (containing 800 μL in every tube). […] At least six independent kidney samples were used for each experiment in this part of the study. Control samples, instead of the drug solution, contained an equal volume of a drug solvent (50 µL of DMSO or water). The reaction was stopped by adding 1 N HCl (100 μL per sample) on ice. […] Tissues from 14 animals were used in this part of the study. Presented data are shown as mean ± standard deviation (SD). The one-way analysis of variance (one-way ANOVA) followed by Tukey’s multiple comparison test was applied to analyze differences between tested COX inhibitors. The half-maximal inhibitory concentrations values (IC50) were assessed by fitting the experimental data to a four-parameter logistic equation. Statistical analyses were done with the use of GraphPad Prism 6. Values of p < 0.05 were considered to be statistically significant.

The target of test [2] is T1, KAT I (Rattus norvegicus, UniProt Q08415).
T1 construct: kidneys were homogenized in dialysate buffer (1:9; w/v); from tissue; host or cells: rat kidney (dialyzed supernatant of homogenate)
T1 sequence (Q08415 1-423): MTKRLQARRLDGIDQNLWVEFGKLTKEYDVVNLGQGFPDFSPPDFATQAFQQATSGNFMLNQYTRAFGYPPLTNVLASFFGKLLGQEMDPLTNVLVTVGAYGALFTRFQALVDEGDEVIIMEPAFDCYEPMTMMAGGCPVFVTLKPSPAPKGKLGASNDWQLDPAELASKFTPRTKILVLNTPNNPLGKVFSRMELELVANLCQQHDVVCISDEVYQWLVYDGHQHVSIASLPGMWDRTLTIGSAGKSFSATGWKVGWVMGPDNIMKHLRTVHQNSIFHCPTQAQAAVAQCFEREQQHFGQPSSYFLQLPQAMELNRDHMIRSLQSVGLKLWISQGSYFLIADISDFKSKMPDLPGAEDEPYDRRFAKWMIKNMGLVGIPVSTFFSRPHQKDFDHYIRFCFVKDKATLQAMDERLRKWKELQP
Put plainly: KAT I activity in rat kidney in vitro. The format is biochemical. As to conditions: 2 µM L-KYN; for IC50: read-out: IC50 of KAT I inhibition; for effect on KAT I activity: 1 μM-1 mM drug. The method, then:
(§1) KAT I and KAT II activity in rat kidneys in vitro was analyzed based on procedures previously presented in a study by Gramsbergen et al.. […] The homogenate was centrifuged (15,133×g, 15 min) and then collected supernatant was dialyzed against 4 L of the dialysate buffer for 12 h at 8 °C with the use of cellulose membrane dialysis tubing. […] L-KYN concentration used in this analysis was equal to plasma KYN concentration, as reported by […] et al., and was sufficient to obtain appropriate enzymatic activity. The optimal pH was set at 9.5 and 7.0 for KAT I or KAT II activity analysis, respectively. Glutamine (2 mM), a KAT I inhibitor, was added to samples to measure KAT II's activity. The reaction was terminated by moving all samples into the ice-cold bath. Finally, all samples were centrifuged and analyzed by HPLC, as described in the previous section. […] To analyze KAT's activity, kidneys from 14 rats were used. Presented data are shown as mean ± standard deviation (SD). The one-way analysis of variance (one-way ANOVA) followed by Tukey's multiple comparison test was applied to analyze differences between tested COX inhibitors. The half-maximal inhibitory concentrations values (IC50) were assessed by fitting the experimental data to a four-parameter logistic equation. Statistical analyses were done with the use of GraphPad Prism 6. Values of p < 0.05 were considered to be statistically significant.

The subject of test [3] is KYNA content in the rat brain. To be noted: cited from earlier work; for KYNA content in the rat brain: after drug administration.
In test [4] the target is T2, KAT II (Rattus norvegicus, UniProt Q64602).
T2 construct: kidneys were homogenized in dialysate buffer (1:9; w/v); from tissue; host or cells: rat kidney (dialyzed supernatant of homogenate)
T2 sequence (Q64602 30-425): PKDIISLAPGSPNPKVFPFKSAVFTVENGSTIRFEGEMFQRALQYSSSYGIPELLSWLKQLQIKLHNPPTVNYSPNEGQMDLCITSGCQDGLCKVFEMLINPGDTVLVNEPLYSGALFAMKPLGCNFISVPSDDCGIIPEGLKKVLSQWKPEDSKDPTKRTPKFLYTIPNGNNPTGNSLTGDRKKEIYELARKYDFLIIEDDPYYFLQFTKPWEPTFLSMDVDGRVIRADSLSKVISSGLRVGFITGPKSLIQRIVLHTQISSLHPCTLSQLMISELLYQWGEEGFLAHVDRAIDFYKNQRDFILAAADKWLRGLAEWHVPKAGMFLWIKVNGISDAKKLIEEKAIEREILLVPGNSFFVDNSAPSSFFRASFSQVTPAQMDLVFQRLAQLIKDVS
Put plainly: KAT II activity in rat kidney in vitro. The format is biochemical. As to conditions: 2 µM L-KYN; for IC50: pH 7.0, 2 mM glutamine, read-out: IC50 of KAT II inhibition. The protocol:
as §1

Test [5] has as its system animal models of ADPKD. As to conditions: animal model of ADPKD, cited from earlier work.
For test [6], the system named is serum KYNA concentration. The arrangement: method as in PMID 36271950. As to conditions: 20 healthy volunteers, acute administration, 5 h after drug administration; cited from earlier work.
[7] abbreviates: pH 9.5, highest concentration tested 1 mM.
[8] abbreviates: highest concentration tested 1 mM.

As a reminder, the IC50 is the point on the concentration scale where inhibition reaches its midpoint. Turning to `COc1ccc2c(c1)c(CC(=O)O)c(C)n2C(=O)c1ccc(Cl)cc1` [indomethacin], the IC50 in test [1] worked out at 246 µM; in test [2] (pH 9.5, 2 h, 37 °C), 503 µM; in test [4] (2 h, 37 °C) it was 420 µM. Besides, the “KYNA content in the rat brain” value in test [3] is recorded as “elevated KYNA levels”.
In the case of `CC1=C(CC(=O)O)c2cc(F)ccc2/C1=C\c1ccc([S+](C)[O-])cc1` (stereo not shown) [sulindac], in test [5] (nonselective COX inhibition), the cysts volume result is recorded as “decrease cysts volume”.
Regarding `O=C(O)Cc1ccccc1Nc1c(Cl)cccc1Cl` [diclofenac, diclofenac sodium salt], the IC50 is 230 µM in test [1]; over 1000 µM in test [2] (setting [7]); 191 µM in test [4] (2 h, 37 °C). Moreover, the “decrease of KYNA synthesis” value in test [1] (concentration not given) came to 64%. The “KYNA content in the rat brain” value in test [3] was “elevated KYNA levels”. In addition, the “KYNA concentration in the rat brain” value in test [3] (following tail ischemia) is reported as “increased KYNA concentration”.
For `CN1C(C(=O)Nc2ccccn2)=C(O)c2ccccc2S1(=O)=O` [piroxicam], the IC50 in test [2] (setting [7]) and in test [4] (setting [8]) was over 1000 µM in each case.
As to `Cc1ccc(-c2cc(C(F)(F)F)nn2-c2ccc(S(N)(=O)=O)cc2)cc1` [celecoxib], the cysts volume entry in test [5] (selective COX-2 blockade) is recorded as “decrease cysts volume”.
As to `COc1ccc2cc([C@H](C)C(=O)O)ccc2c1` [naproxen, naproxen sodium], the IC50 in test [1] is 464 µM; in test [2] (setting [7]), over 1000 µM; in test [4] (2 h, 37 °C), 504 µM.
`CC(=O)Nc1ccc(O)cc1` [acetaminophen]: the “effect on KYNA production” value in test [1] (1 μM-1 mM drug) is given as “did not change KYNA production”. In test [2], the “effect on KAT I activity” value is on record as “did not affect the activity of KAT I”. The “effect on KAT II activity” value in test [4] (1 μM-1 mM drug) is given as “not shown to inhibit KAT II activity”.
Turning to `CC(C)Cc1ccc(C(C)C(=O)O)cc1` (stereo not shown) [ibuprofen], the IC50 in test [1] (setting [8]) and in test [4] (setting [8]) was over 1000 µM throughout. Moreover, the “effect on KAT I activity” value in test [2] is reported as “did not affect the activity of KAT I”. Besides, the “serum KYNA concentration” value in test [6] is “increases serum KYNA concentration”.
With `CS(=O)(=O)Nc1ccc([N+](=O)[O-])cc1Oc1ccccc1` [nimesulide], the IC50 in test [1] is 473 µM; in test [2] (pH 9.5, 2 h, 37 °C), 128 µM; in test [4] (setting [8]) it was over 1000 µM.
Consider `CC(=O)Oc1ccccc1C(=O)O` [acetylsalicylic acid], for which the half-inhibitory concentration (IC50) in test [1] (setting [8]) and in test [4] (setting [8]) was over 1000 µM throughout. The “effect on KAT I activity” value in test [2] is reported as “did not affect the activity of KAT I”.
`Cc1cnc(NC(=O)C2=C(O)c3ccccc3S(=O)(=O)N2C)s1` [meloxicam, meloxicam sodium salt hydrate]: the IC50 in test [1] (setting [8]) is over 1000 µM; in test [2] (pH 9.5, 2 h, 37 °C), 310 µM; in test [4] (2 h, 37 °C), 155 µM. Besides, the “KYNA content in the rat brain” value in test [3] is “Decreased KYNA content”.
